Test results: PMC10412636, “An analysis of interactions between three structurally diverse anthocyanidins, as well as their glucosides, and model biological membranes, albumin, and plasmid DNA” (Scientific Reports, 2023)

Key:
[1] = DPH fluorescence quenching, dissociation constant with MM liposome membrane; type: binding; settings: 37 °C
Method: (§1) Two types of liposomes were used to study interactions with biological membranes: liposomes mimicking the composition of cancer cell membranes (mimic membrane liposome—MM) and liposomes formed from lipids extracted from human blood erythrocyte membranes (red blood cell membrane liposome—RBCM). […] Both lipids, dissolved in chloroform (MM liposome) and n-decane (RBCM liposome), were evaporated under a nitrogen atmosphere, and then dried in a desiccator for 90 min under a vacuum. The obtained dry lipid film was hydrated in phosphate buffer, pH 7.4, obtaining a concentration of 0.1 mg/ml, and then vortexed for one minute until a homogeneous, milky suspension was observed. The mixture was sonicated (Sonic, Milano, Italia) for 15 min keeping the sample in a bath of ice water, thus providing a cooling temperature of 0 °C. The suspension was then processed (extrusion) through polycarbonate filters with pore diameters of 100 and 200 nm using a Lipex extruder (Evonik). Liposomes, which had been prepared according to this procedure, was used in fluorimetric studies.
The phenomenon of quenching the fluorescence of the DPH probe by biologically active substances enabled us to evaluate the partition coefficient (Kd, dissociation constant) of anthocyanins with both MM and RBCM liposome membranes. For this purpose, changes in the fluorescence intensity of this probe were checked and the coefficient was calculated using the equation[48]:2 1/F0/F-1=Kd/[liposomes]×1/[anthocyanins]+1/liposomes where F0—fluorescence intensity in the absence of anthocyanins (control sample), F—fluorescence intensity in the presence of anthocyanins, [liposomes]—concentration of liposomes in mg/ml, [anthocyanins]—concentration of anthocyanins tested mg/ml.
(§2) Liposomes (the concentration of lipids in the sample was 0.1 mg/ml) were incubated for 30 min with the appropriate probe (dissolved in DMF, 1 µM concentration), and then the tested anthocyanins were added (final concentration of 1 to 30 µM). The control sample consisted of liposomes and a fluorescent probe. Fluorescence was measured on a fluorimeter (Cary Eclipse, Varian, San Diego, USA) at 37 °C. The excitation wavelengths λex and emission wavelengths λem respectively: MC540—λexc = 540 nm, λem = 590 nm; DPH—λexc = 360 nm, λem = 425 nm. nm; TMA-DPH—λexc = 340 nm, λem = 430 nm.

[2] = MC540 probe fluorescence intensity in MM liposomes; settings: 37 °C, positive = decrease
Method: as §1
(§3) To investigate these properties three fluorescent probes were used: MC540, TMA-DPH, and DPH. MC540 localizes to the outer, hydrophilic part of the membrane, within the region of the glycerol skeleton[44]. Changes in the fluorescence intensity of this probe were formulated as the relative change in intensity to the control as a function of anthocyanins concentration. The TMA-DPH and DPH probes are supposed to locate nearer to the interface and in the hydrophobic region, respectively[45]. The measurement of changes in the anisotropy of the TMA-DPH and DPH probes allowed us to reflect the mobility of the fluorescent probes in the membrane, and therefore to determine the fluidity of the bilayer[46]. Fluorescence anisotropy was calculated using the formula[47]:1 A=I‖-GI⊥/I‖+2GI⊥ where I‖ and I⊥ are the intensity of fluorescence in parallel and perpendicular directions, to the plane of polarization of the excitation wave, respectively. G is an apparatus constant that depends on the emission wavelength.
as §2

[3] = TMA-DPH probe fluorescence anisotropy in MM liposomes; settings: negative = increase in anisotropy
Method: as §1, §3, §2

pHbApr-1-Neo plasmid DNA = experiment: TCSPC-FCS of PicoGreen-labelled plasmid DNA with anthocyanins; type: binding
Method: To evaluate the biological interaction with DNA molecules the anthocyanins were initially dissolved in ETOH (1 mM). […] Mixing of such solutions with the aqueous DNA solutions used in the studies never exceeded 1% concentration ETOH (v/v) in the final solution. The DNA plasmid was labelled by PicoGreen (CPicoGreen/CDNAbp = 0.02)[52]. The pHbApr-1-Neo plasmid (10 kbp and contour length 3.4 µm) was a generous gift from the laboratory of Prof. Maciej Ugorski (Department of Biochemistry and Molecular Biology, Wrocław University of Environmental and Life Sciences Wroclaw, Poland). PicoGreen-labelled DNA samples mixed with the appropriate amount of anthocyanins were left overnight and then measured. The increasing concentration of anthocyanins in the tested samples was expressed as the ratio of the molar concentration of anthocyanins per molar concentration of DNA base pairs in a given sample (comp/bp). The 100 µl samples were measured in Ibidi 8-well chambers. Each point on the graph is a single sample (average of 10 measurements). All measurements were performed at room temperature (25 °C). Time-correlated single-photon counting fluorescence correlation spectroscopy (TCSPC-FCS) was used to study the interaction of plasmid DNA at the single molecule level with all tested anthocyanins. […] Low power of 1uW (at the back aperture of the objective) was chosen to minimize photobleaching and saturation. In the detection plane, a pinhole (50um in diameter) was used and the signal was collected by a single photon avalanche diode (SPAD, Microphoton Devices, Bolzano, Italy). Photon arrival times were stored using fast electronics (Picoharp 300, PicoQuant) in time-tagged time-resolved recording mode. Two independent times were assigned to each detected photon: (1) a time after the beginning of the measurement and (2) a time after the previous laser pulse. The FCS data analysis was done using home-built routines (DevC++, Bloodshed Software and OriginPro70, OriginLab Corporation). The TCSPC data analysis was performed using SymPhoTime software (PicoQuant). Further details of the data evaluation are given elsewhere.

[4] = TMA-DPH probe fluorescence anisotropy in RBCM liposomes; parameters: species or system human; settings: negative = increase in anisotropy
Description: Two types of liposomes were used to study interactions with biological membranes: liposomes mimicking the composition of cancer cell membranes (mimic membrane liposome—MM) and liposomes formed from lipids extracted from human blood erythrocyte membranes (red blood cell membrane liposome—RBCM). […] The RBCM liposome was according to the methodology described previously[42] with minor modifications[43]. Both lipids, dissolved in chloroform (MM liposome) and n-decane (RBCM liposome), were evaporated under a nitrogen atmosphere, and then dried in a desiccator for 90 min under a vacuum. The obtained dry lipid film was hydrated in phosphate buffer, pH 7.4, obtaining a concentration of 0.1 mg/ml, and then vortexed for one minute until a homogeneous, milky suspension was observed. The mixture was sonicated (Sonic, Milano, Italia) for 15 min keeping the sample in a bath of ice water, thus providing a cooling temperature of 0 °C. The suspension was then processed (extrusion) through polycarbonate filters with pore diameters of 100 and 200 nm using a Lipex extruder (Evonik). Liposomes, which had been prepared according to this procedure, was used in fluorimetric studies.
To investigate these properties three fluorescent probes were used: MC540, TMA-DPH, and DPH. MC540 localizes to the outer, hydrophilic part of the membrane, within the region of the glycerol skeleton[44]. […] The TMA-DPH and DPH probes are supposed to locate nearer to the interface and in the hydrophobic region, respectively[45]. The measurement of changes in the anisotropy of the TMA-DPH and DPH probes allowed us to reflect the mobility of the fluorescent probes in the membrane, and therefore to determine the fluidity of the bilayer[46]. Fluorescence anisotropy was calculated using the formula[47]:1 A=I‖-GI⊥/I‖+2GI⊥ where I‖ and I⊥ are the intensity of fluorescence in parallel and perpendicular directions, to the plane of polarization of the excitation wave, respectively. G is an apparatus constant that depends on the emission wavelength.
as §2

[5] = DPH fluorescence quenching, dissociation constant with RBCM liposome membrane; type: binding, human; settings: 37 °C
[6] = biological target: human serum albumin (HSA) (Homo sapiens, UniProt P02768); experiment: Quenching of natural fluorescence of human serum albumin; type: binding; settings: HSA […] 10^–5 M, 37 °C
Sequence of human serum albumin (HSA) (P02768 25-609): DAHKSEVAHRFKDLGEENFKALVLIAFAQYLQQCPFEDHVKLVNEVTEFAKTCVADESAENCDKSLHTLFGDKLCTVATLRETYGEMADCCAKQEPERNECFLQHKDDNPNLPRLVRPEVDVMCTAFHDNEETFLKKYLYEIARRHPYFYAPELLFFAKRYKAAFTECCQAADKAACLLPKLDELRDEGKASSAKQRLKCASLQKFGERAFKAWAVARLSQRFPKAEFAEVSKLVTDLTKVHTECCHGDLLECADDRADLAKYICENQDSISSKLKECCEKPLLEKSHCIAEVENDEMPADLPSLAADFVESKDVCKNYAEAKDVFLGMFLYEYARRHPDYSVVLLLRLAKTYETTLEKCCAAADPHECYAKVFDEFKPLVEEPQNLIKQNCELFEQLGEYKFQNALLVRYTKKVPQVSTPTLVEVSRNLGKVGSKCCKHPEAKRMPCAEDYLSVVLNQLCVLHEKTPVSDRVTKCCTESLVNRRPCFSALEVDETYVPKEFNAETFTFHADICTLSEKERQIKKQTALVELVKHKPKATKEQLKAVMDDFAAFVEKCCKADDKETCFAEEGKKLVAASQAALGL
Method: The phenomenon of quenching the natural fluorescence of human serum albumin (HSA) was used to investigate the potential interaction of anthocyanins with this protein. […] Anthocyanins with concentrations ranging from 1 to 30 µM were added to HSA dissolved in phosphate buffer (1.5 × 10^–5 M) and then incubated at 37 °C for 20 min. Emission spectra were performed on a fluorimeter Cary Eclipse (Varian, San Diego, USA) at 37 °C. HSA fluorescence was excited with a wavelength of λ = 280 nm, the emission was measured in the range from 286 to 460 nm, and the fluorescence intensity was read at 345 nm where the emission maximum of HSA was located.
The Stern–Volmer equation was used to thoroughly describe the quenching mechanism of natural fluorescence and to determine the bindings parameters of HSA: anthocyanin complexes:4 F0/F=1+Kqτ0Q=1+KSV[Q] where F0—fluorescence intensity in the absence of anthocyanins (control sample), F—fluorescence intensity in the presence of anthocyanins, KSV—Stern–Volmer quenching constant (KSV = Kq·τ0), [Q]—concentration of quencher (tested compound), Kq—bimolecular quenching constant, τ0—a lifetime of the fluorophore in the absence of quencher the fluorescence lifetime of a biopolymer is calculated as 5 × 10^–9 s[51].
The apparent binding constants (Kb) and the number of binding sites (n) can be calculated using the following equation:5 log(F0-F/F]=logKb+nlog[Q]
F0 and F are the fluorescence intensities before and after the addition of the quencher. From the linear plot of log (F0 − F)/F versus log [Q], the value of Kb was obtained from the intercept.

[7] = DPH probe fluorescence anisotropy in MM liposomes; settings: MM, negative = increase in anisotropy
Method: as §1, §3, §2

[8] = DPH probe fluorescence anisotropy in RBCM liposomes; parameters: species or system human; settings: RBCM, negative = increase in anisotropy
Method: as §1, §3, §2

[9] = MC540 probe fluorescence intensity in RBCM liposomes; parameters: species or system human; settings: 37 °C, positive = decrease
[10] = 30 µM, listed as petunidin glucoside

Kd [1]	Kd [5]	Stern Volmer constant KSV [6]	number of binding sites n [6]	SMILES	Changes in MC540 fluorescence intensity relative to the control ([2]; 1 µM)	Changes in MC540 fluorescence intensity relative to the control ([2]; 5 µM)	Changes in MC540 fluorescence intensity relative to the control ([2]; 10 µM)	Changes in MC540 fluorescence intensity relative to the control ([2]; 20 µM)	Changes in MC540 fluorescence intensity relative to the control ([2]; 30 µM)	Changes in TMA-DPH anisotropy relative to the control ([3]; 1 µM)	Changes in TMA-DPH anisotropy relative to the control ([3]; 5 µM)	Changes in TMA-DPH anisotropy relative to the control ([3]; 10 µM)	Changes in TMA-DPH anisotropy relative to the control ([3]; 20 µM)	Changes in TMA-DPH anisotropy relative to the control ([3]; 30 µM)	Changes in TMA-DPH anisotropy relative to the control ([4]; 1 µM)	Changes in TMA-DPH anisotropy relative to the control ([4]; 5 µM)	Changes in TMA-DPH anisotropy relative to the control ([4]; 10 µM)	Changes in TMA-DPH anisotropy relative to the control ([4]; 20 µM)	Changes in TMA-DPH anisotropy relative to the control ([4]; 30 µM)	Changes in DPH anisotropy relative to the control ([7]; 1 µM)	further results
114 ± 17.2 µM	28.2 ± 5.11 µM	11.93 ± 1.61 × 10^3 M^−1	0.91 ± 0.09	COc1cc(-c2[o+]c3cc(O)cc(O)c3cc2OC2OC(CO)C(O)C(O)C2O)ccc1O (stereo not shown) [Pn 3-glc, Peonidin 3-O-glucoside]	6.40±0.34%	10.52±0.67%	14.98±0.94%	24.13±1.45%	35.68±1.88%	-3.26±0.11%	-0.96±0.03%	0.69±0.02%	0.19±0.003%	1.63±0.05%	-2.75±0.12%	-0.59±0.03%	-0.56±0.02%	-0.61±0.03%	0.65±0.04%	-7.68±0.11%	lifetime (LT) (pHbApr-1-Neo plasmid DNA; 0 < comp/bp < 1, decrease from 4.25 ns): about 3.25 ns; lifetime (LT) (pHbApr-1-Neo plasmid DNA; comp/bp from 1 to 10, minor further decrease): about 2.75 ns; decrease in the diffusion time (tD) (pHbApr-1-Neo plasmid DNA; tested range of comp/bp from 0 to 10): 2.5 fold; Changes in DPH anisotropy relative to the control ([7]; 5 µM): -6.50±0.15%; Changes in DPH anisotropy relative to the control ([7]; 10 µM): -6.27±0.08%; Changes in DPH anisotropy relative to the control ([7]; 20 µM): -3.12±0.03%; Changes in DPH anisotropy relative to the control ([7]; 30 µM): -0.39±0.01%; Changes in DPH anisotropy relative to the control ([8]; 1 µM): -5.23±0.04%; Changes in DPH anisotropy relative to the control ([8]; 5 µM): -2.72±0.08%; Changes in DPH anisotropy relative to the control ([8]; 10 µM): -2.02±0.05%; Changes in DPH anisotropy relative to the control ([8]; 20 µM): -0.79±0.03%; Changes in DPH anisotropy relative to the control ([8]; 30 µM): -0.03±0.002%; Changes in MC540 fluorescence intensity relative to the control ([9]; 1 µM): 16.40±0.66%; Changes in MC540 fluorescence intensity relative to the control ([9]; 5 µM): 20.98±1.80%; Changes in MC540 fluorescence intensity relative to the control ([9]; 10 µM): 29.53±2.47%; Changes in MC540 fluorescence intensity relative to the control ([9]; 20 µM): 38.00±0.57%; Changes in MC540 fluorescence intensity relative to the control ([9]; 30 µM): 50.34±2.93%
29.3 ± 5.43 µM	46.9 ± 6.8 µM	5.50 ± 0.94 × 10^3 M^−1	0.92 ± 0.04	COc1cc(-c2[o+]c3cc(O)cc(O)c3cc2OC2OC(CO)C(O)C(O)C2O)cc(O)c1O (stereo not shown) [Pt 3-glc, Petunidin 3-O-glucoside]	6.95±0.35%	10.52±0.57%	17.35±0.69%	31.49±1.78%	42.63±0.74%	-3.47±0.16%	-2.18±0.02%	-2.04±0.07%	0.91±0.03%	-2.20±0.06%	-2.24±0.09%	-0.99±0.03%	1.63±0.07%	-0.47±0.02%	3.60±0.11%	-5.67±0.28%	Changes in MC540 fluorescence intensity relative to the control [2, 10]: 42.6 ± 0.7%; decrease in the diffusion time (tD) (pHbApr-1-Neo plasmid DNA; comp/bp = 1, from about 70 ms): ~20 fold; lifetime (LT) (pHbApr-1-Neo plasmid DNA; comp/bp = 1, plasmid alone 4.25 ns): about 3.0 ns; Particle Number (PN) (pHbApr-1-Neo plasmid DNA; comp/bp = 1, plasmid alone 5): about 0.7; diffusion time (tD) (pHbApr-1-Neo plasmid DNA; comp/bp = 1, plasmid alone about 70 ms): 3.5 ms; Changes in DPH anisotropy relative to the control ([7]; 5 µM): -9.84±0.13%; Changes in DPH anisotropy relative to the control ([7]; 10 µM): -9.71±0.15%; Changes in DPH anisotropy relative to the control ([7]; 20 µM): -7.55±0.12%; Changes in DPH anisotropy relative to the control ([7]; 30 µM): -6.11±0.03%; Changes in DPH anisotropy relative to the control ([8]; 1 µM): -7.54±0.13%; Changes in DPH anisotropy relative to the control ([8]; 5 µM): -7.10±0.35%; Changes in DPH anisotropy relative to the control ([8]; 10 µM): -7.11±0.42%; Changes in DPH anisotropy relative to the control ([8]; 20 µM): -7.30±0.53%; Changes in DPH anisotropy relative to the control ([8]; 30 µM): -7.24±0.48%; Changes in MC540 fluorescence intensity relative to the control ([9]; 1 µM): 13.68±0.65%; Changes in MC540 fluorescence intensity relative to the control ([9]; 10 µM): 28.28±3.62%; Changes in MC540 fluorescence intensity relative to the control ([9]; 20 µM): 41.75±7.08%; Changes in MC540 fluorescence intensity relative to the control ([9]; 30 µM): 58.91±14.03%; Changes in MC540 fluorescence intensity relative to the control [9, 10]: 58.9 ± 14.0%
